Measured values from ChEMBL document CHEMBL1681723, “Phellinstatin, a new inhibitor of enoyl-ACP reductase produced by the medicinal fungus Phellinus linteus” (Bioorg Med Chem Lett, 2011).
Converted amounts (≈) assume the structure as drawn. The source made the active and inactive calls. The calls are words filed in the database; no cut-off is given here.

How the values were obtained:
[1] = target: T1, Enoyl-[acyl-carrier-protein] reductase [NADPH] FabI (Staphylococcus aureus, UniProt Q6GI75); experiment: (§1) Inhibition of Staphylococcus aureus enoyl-ACP reductase assessed as increase of NADPH level
T1 sequence (Q6GI75 whole entry): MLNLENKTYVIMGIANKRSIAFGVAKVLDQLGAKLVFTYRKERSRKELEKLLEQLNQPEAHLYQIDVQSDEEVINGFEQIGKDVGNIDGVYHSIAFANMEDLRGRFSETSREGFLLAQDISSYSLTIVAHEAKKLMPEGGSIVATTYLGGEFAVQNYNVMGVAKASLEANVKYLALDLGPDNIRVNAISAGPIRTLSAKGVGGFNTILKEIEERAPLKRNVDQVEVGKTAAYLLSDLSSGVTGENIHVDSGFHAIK

[2] = test system: Staphylococcus aureus; experiment: Antibacterial activity against Staphylococcus aureus RN4220 at 128 ug/ml; assay type: functional, organism-based
[3] = test system: Staphylococcus aureus; experiment: Antibacterial activity against methicillin-resistant Staphylococcus aureus CCARM 3167 at 128 ug/ml; assay type: functional, organism-based
[4] = target: T2, Enoyl-[acyl-carrier-protein] reductase [NADPH] FabI (Staphylococcus aureus) (UniProt Q6GI75); experiment: as §1
T2 sequence (whole entry): T1 sequence (Q6GI75 whole entry)

[5] = test system: Staphylococcus aureus; experiment: Antibacterial activity against Staphylococcus aureus RN4220; assay type: functional
[6] = test system: Staphylococcus aureus; experiment: Antibacterial activity against methicillin-resistant Staphylococcus aureus CCARM 3167; assay type: functional

Structure (SMILES) | IC50 [1] [µM] | Activity [2] | Activity [3] | inhibition [4] | MIC [5] [µg/mL] | MIC [6] [µg/mL]
O=c1cc(O)cc([C@H]2c3c(cc(/C=C/c4ccc(O)c(O)c4)oc3=O)O[C@@H]2c2ccc(O)c(O)c2)o1 [HYPHOLOMINE B] | 15.3 | inactive | inactive | – | – | –
O=c1cc(O)cc([C@H]2c3c(cc(/C=C/c4cc(O)c(O)cc4-c4c(O)cc(/C=C/c5ccc(O)c(O)c5)oc4=O)oc3=O)O[C@@H]2c2ccc(O)c(O)c2)o1 [PHELLINSTATIN] | 6 | – | – | Dose-dependent effect | 128 (≈ 174 µM) | 128 (≈ 174 µM)
